The record followed here is US10913727B2, “Modulators of the integrated stress pathway” (Calico Life Sciences LLC, priority 2016, dated 2021).

This test concerns HEK293T cells carrying the ATF4 luciferase reporter. Kind of test: ATF4-Luc assay, in vitro model of Vanishing Cell White Matter Disease (VWMD). The conditions noted are these: Homo sapiens, HEK-293T, 1 μg/mL tunicamycin, 7 hours, One Glo luminescence. Format: cell-based. Summed up: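 Compound at 200 nM and tunicamycin at 1 μg/mL were given together for 7 h to HEK293T cells stably transduced with an ATF4 5′-UTR-driven firefly luciferase reporter. Read-out by luminescence, reported as EC50.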
Broadly, the EC50 is the concentration at which the effect is half-maximal. Take `O=C(COc1ccc(Cl)c(F)c1)NC12CC(NC(=O)c3cn[nH]c3)(C1)C2` [Compound 310, N-{3-[2-(4-chloro-3-fluorophenoxy)acetamido]bicyclo[1.1.1]pentan-1-yl}-1H-pyrazole-4-carboxamide]: the EC50 is > 2000 nM. For `O=C(COc1ccc(Cl)c(F)c1)NC12CC(NC(=O)c3ccno3)(C1)C2` [Compound 311, N-{3-[2-(4-chloro-3-fluorophenoxy)acetamido]bicyclo[1.1.1]pentan-1-yl}-1,2-oxazole-5-carboxamide], the EC50 lay in the range of 1000 to 2000 nM. As for `Cc1noc(C)c1C(=O)NC12CC(NC(=O)COc3ccc(Cl)c(F)c3)(C1)C2` [Compound 312, N-{3-[2-(4-chloro-3-fluorophenoxy)acetamido]bicyclo[1.1.1]pentan-1-yl}-3,5-dimethyl-1,2-oxazole-4-carboxamide], the EC50 was > 2000 nM. As to `O=C(COc1ccc(Cl)c(F)c1)NC12CC(NC(=O)c3c[nH]c4ccccc34)(C1)C2` [Compound 313, N-{3-[2-(4-chloro-3-fluorophenoxy)acetamido]bicyclo[1.1.1]pentan-1-yl}-1H-indole-3-carboxamide], the EC50 lay within 50 to 250 nM.

`Cc1ccn2c(=O)c(C(=O)NC34CC(NC(=O)COc5ccc(Cl)c(F)c5)(C3)C4)cnc2c1` [Compound 314, N-{3-[2-(4-chloro-3-fluorophenoxy)acetamido]bicyclo[1.1.1]pentan-1-yl}-8-methyl-4-oxo-4H-pyrido[1,2-a]pyrimidine-3-carboxamide]: the EC50 was > 2000 nM. Take `O=C(COc1ccc(Cl)c(F)c1)NC12CC(NC(=O)c3coc4c3C(=O)CCC4)(C1)C2` [Compound 315, N-{3-[2-(4-chloro-3-fluorophenoxy)acetamido]bicyclo[1.1.1]pentan-1-yl}-4-oxo-4,5,6,7-tetrahydro-1-benzofuran-3-carboxamide]: the EC50 was 250 to 1000 nM. In the case of `CCCOc1ccc(C(=O)NC23CC(NC(=O)COc4ccc(Cl)c(F)c4)(C2)C3)cc1` [Compound 316, N-{3-[2-(4-chloro-3-fluorophenoxy)acetamido]bicyclo[1.1.1]pentan-1-yl}-4-propoxybenzamide], the EC50 is 50 to 250 nM. On to `O=C(COc1ccc(Cl)c(F)c1)NC12CC(NC(=O)c3cc4ccccc4o3)(C1)C2` [Compound 317, N-{3-[2-(4-chloro-3-fluorophenoxy)acetamido]bicyclo[1.1.1]pentan-1-yl}-1-benzofuran-2-carboxamide], for which the EC50 is < 50 nM. For the molecule `O=C(COc1ccc(Cl)c(F)c1)NC12CC(NC(=O)c3n[nH]c4ccccc34)(C1)C2` [Compound 318, N-{3-[2-(4-chloro-3-fluorophenoxy)acetamido]bicyclo[1.1.1]pentan-1-yl}-1H-indazole-3-carboxamide], the EC50 is > 2000 nM. Next, `COc1ccc2oc(C(=O)NC34CC(NC(=O)COc5ccc(Cl)c(F)c5)(C3)C4)cc2c1` [Compound 319, N-{3-[2-(4-chloro-3-fluorophenoxy)acetamido]bicyclo[1.1.1]pentan-1-yl}-5-methoxy-1-benzofuran-2-carboxamide]: 50 to 250 nM; `O=C(COc1ccc(Cl)c(F)c1)NC12CC(NC(=O)c3ccn[nH]3)(C1)C2` [Compound 320, N-{3-[2-(4-chloro-3-fluorophenoxy)acetamido]bicyclo[1.1.1]pentan-1-yl}-1H-pyrazole-5-carboxamide]: 1000 to 2000 nM.

As for `O=C(COc1ccc(Cl)c(F)c1)NC12CC(NC(=O)c3ccc(OC(F)(F)F)cc3)(C1)C2` [Compound 321, N-{3-[2-(4-chloro-3-fluorophenoxy)acetamido]bicyclo[1.1.1]pentan-1-yl}-4-(trifluoromethoxy)benzamide], the EC50 lay in the range of 50 to 250 nM.

For `O=C(COc1ccc(Cl)c(F)c1)NC12CC(NC(=O)c3ccc(O)nc3)(C1)C2` [Compound 322, N-{3-[2-(4-chloro-3-fluorophenoxy)acetamido]bicyclo[1.1.1]pentan-1-yl}-6-hydroxypyridine-3-carboxamide], the EC50 is > 2000 nM. Take `CCc1cc(C(=O)NC23CC(NC(=O)COc4ccc(Cl)c(F)c4)(C2)C3)on1` [Compound 323, N-{3-[2-(4-chloro-3-fluorophenoxy)acetamido]bicyclo[1.1.1]pentan-1-yl}-3-ethyl-1,2-oxazole-5-carboxamide]: the EC50 is 250 to 1000 nM.

With `Cc1cc(C(=O)NC23CCC(NC(=O)COc4ccc(Cl)c(F)c4)(C2)C3)on1` [Compound 324, N-{4-[2-(4-chloro-3-fluorophenoxy)acetamido]bicyclo[2.1.1]hexan-1-yl}-3-methyl-1,2-oxazole-5-carboxamide], the EC50 is 250 to 1000 nM. In the case of `NS(=O)(=O)c1ccc(C(=O)NC23CC(NC(=O)COc4ccc(Cl)c(F)c4)(C2)C3)cn1` [Compound 325, N-{3-[2-(4-chloro-3-fluorophenoxy)acetamido]bicyclo[1.1.1]pentan-1-yl}-6-sulfamoylpyridine-3-carboxamide], the EC50 is > 2000 nM.

Regarding `Cc1cc(C(=O)NC23CCC(NC(=O)COc4ccc(Cl)c(F)c4)(CC2)C(O)C3)on1` (centres unmarked) [Compound 326, N-{4-[2-(4-chloro-3-fluorophenoxy)acetamido]-3-hydroxybicyclo[2.2.2]octan-1-yl}-3-methyl-1,2-oxazole-5-carboxamide], the EC50 was in the range of 50 to 250 nM.

`O=C(COc1ccc(Cl)c(F)c1)NC12CCC(NC(=O)c3cc(C4CC4)no3)(CC1)CC2O` (centres unmarked) [Compound 327, N-{4-[2-(4-chloro-3-fluorophenoxy)acetamido]-3-hydroxybicyclo[2.2.2]octan-1-yl}-3-cyclopropyl-1,2-oxazole-5-carboxamide]: the EC50 was 50 to 250 nM. In the case of `O=C(COc1ccc(Cl)c(F)c1)NC12CCC(NC(=O)c3onc4ccccc34)(CC1)CC2O` (centres unmarked) [Compound 328, N-{4-[2-(4-chloro-3-fluorophenoxy)acetamido]-3-hydroxybicyclo[2.2.2]octan-1-yl}-2,1-benzoxazole-3-carboxamide], the EC50 is 1000 to 2000 nM. On to `Cn1nc(C2CC2)cc1C(=O)NC12CC(NC(=O)COc3ccc(Cl)c(F)c3)(C1)C2` [Compound 329, N-{3-[2-(4-chloro-3-fluorophenoxy)acetamido]bicyclo[1.1.1]pentan-1-yl}-3-cyclopropyl-1-methyl-1H-pyrazole-5-carboxamide], for which the EC50 is 50 to 250 nM.

Regarding `Cc1cc(C(=O)NC23CCC(NC(=O)COc4ccc(Cl)c(F)c4)(CC2)CC3O)on1` (centres unmarked) [Compound 330, N-{4-[2-(4-chloro-3-fluorophenoxy)acetamido]-2-hydroxybicyclo[2.2.2]octan-1-yl}-3-methyl-1,2-oxazole-5-carboxamide], the EC50 fell in the range of 50 to 250 nM. As for `O=C(COc1ccc(Cl)c(F)c1)NC12CCC(NC(=O)c3cc(C4CC4)no3)(CC1)C(O)C2` (centres unmarked) [Compound 331, N-{4-[2-(4-chloro-3-fluorophenoxy)acetamido]-2-hydroxybicyclo[2.2.2]octan-1-yl}-3-cyclopropyl-1,2-oxazole-5-carboxamide], the EC50 was in the range of 250 to 1000 nM. Next, `O=C(COc1ccc(Cl)c(F)c1)NC12CCC(NC(=O)c3onc4ccccc34)(CC1)C(O)C2` (centres unmarked) [Compound 332, N-{4-[2-(4-chloro-3-fluorophenoxy)acetamido]-2-hydroxybicyclo[2.2.2]octan-1-yl}-2,1-benzoxazole-3-carboxamide]: > 2000 nM.

Consider `CCCc1cnc(C(=O)NC23CC(NC(=O)COc4ccc(Cl)c(F)c4)(C2)C3)cn1` [Compound 334, N-{3-[2-(4-chloro-3-fluorophenoxy)acetamido]bicyclo[1.1.1]pentan-1-yl}-5-propylpyrazine-2-carboxamide], for which the EC50 is < 50 nM.

Take `N#CCCc1ccc(C(=O)NC23CCC(NC(=O)COc4ccc(Cl)c(F)c4)(C2)C3)nc1` [Compound 336, N-{4-[2-(4-chloro-3-fluorophenoxy)acetamido]bicyclo[2.1.1]hexan-1-yl}-5-(2-cyanoethyl)pyridine-2-carboxamide]: the EC50 was > 2000 nM. Next, `O=C(COc1ccc(Cl)c(F)c1)NC12CCC(NC(=O)c3ccc(OC(F)F)cn3)(C1)C2` [Compound 337, N-{4-[2-(4-chloro-3-fluorophenoxy)acetamido]bicyclo[2.1.1]hexan-1-yl}-5-(difluoromethoxy)pyridine-2-carboxamide]: 250 to 1000 nM; `Cn1nc(C(C)(C)C)cc1C(=O)NC12CC(NC(=O)COc3ccc(Cl)c(F)c3)(C1)C2` [Compound 338, 3-tert-butyl-N-{3-[2-(4-chloro-3-fluorophenoxy)acetamido]bicyclo[1.1.1]pentan-1-yl}-1-methyl-1H-pyrazole-5-carboxamide]: 50 to 250 nM; `O=C(COc1ccc(Cl)c(F)c1)NC12CC(NC(=O)c3csc(-c4ccccc4)n3)(C1)C2` [Compound 339, N-{3-[2-(4-chloro-3-fluorophenoxy)acetamido]bicyclo[1.1.1]pentan-1-yl}-2-phenyl-1,3-thiazole-4-carboxamide]: < 50 nM.

With `Cn1nc(-c2ccccc2)cc1C(=O)NC12CC(NC(=O)COc3ccc(Cl)c(F)c3)(C1)C2` [Compound 340, N-{3-[2-(4-chloro-3-fluorophenoxy)acetamido]bicyclo[1.1.1]pentan-1-yl}-1-methyl-3-phenyl-1H-pyrazole-5-carboxamide], the EC50 was < 50 nM. As to `Cc1nc2ccc(C(=O)NC34CC(NC(=O)COc5ccc(Cl)c(F)c5)(C3)C4)cc2o1` [Compound 341, N-{3-[2-(4-chloro-3-fluorophenoxy)acetamido]bicyclo[1.1.1]pentan-1-yl}-2-methyl-1,3-benzoxazole-6-carboxamide], the EC50 is > 2000 nM. Turning to `Cn1cnc2cc(C(=O)NC34CC(NC(=O)COc5ccc(Cl)c(F)c5)(C3)C4)ccc2c1=O` [Compound 342, N-{3-[2-(4-chloro-3-fluorophenoxy)acetamido]bicyclo[1.1.1]pentan-1-yl}-3-methyl-4-oxo-3,4-dihydroquinazoline-7-carboxamide], the EC50 was 250 to 1000 nM. Turning to `CCCn1ccc(C(=O)NC23CC(NC(=O)COc4ccc(Cl)c(F)c4)(C2)C3)n1` [Compound 343, N-{3-[2-(4-chloro-3-fluorophenoxy)acetamido]bicyclo[1.1.1]pentan-1-yl}-1-propyl-1H-pyrazole-3-carboxamide], the EC50 lay in the range of 50 to 250 nM.
